Source: US9187497B2, “Substituted pyrido[3,2-e]pyrrolo[1,2-a]pyrazines as inhibitors of poly(ADP-ribose)polymerase (PARP)” (Takeda Phamaceutical Company Limited, priority 2009, dated 2015)

What was measured:
PARP = target: T1, PARP (Homo sapiens, UniProt P09874); test: PARP ELISA colorimetric assay of inhibition of PARP catalytic activity (IC50); assay type: biochemical; conditions: pIC50=-log(IC50), IC50 in molar concentration; ELISA-based PARP kit, 10 minutes of catalysis
T1 construct: purchased Trevigen 4684-096-01 (enzyme); kit 4684-096-K HT
T1 sequence (P09874 whole entry): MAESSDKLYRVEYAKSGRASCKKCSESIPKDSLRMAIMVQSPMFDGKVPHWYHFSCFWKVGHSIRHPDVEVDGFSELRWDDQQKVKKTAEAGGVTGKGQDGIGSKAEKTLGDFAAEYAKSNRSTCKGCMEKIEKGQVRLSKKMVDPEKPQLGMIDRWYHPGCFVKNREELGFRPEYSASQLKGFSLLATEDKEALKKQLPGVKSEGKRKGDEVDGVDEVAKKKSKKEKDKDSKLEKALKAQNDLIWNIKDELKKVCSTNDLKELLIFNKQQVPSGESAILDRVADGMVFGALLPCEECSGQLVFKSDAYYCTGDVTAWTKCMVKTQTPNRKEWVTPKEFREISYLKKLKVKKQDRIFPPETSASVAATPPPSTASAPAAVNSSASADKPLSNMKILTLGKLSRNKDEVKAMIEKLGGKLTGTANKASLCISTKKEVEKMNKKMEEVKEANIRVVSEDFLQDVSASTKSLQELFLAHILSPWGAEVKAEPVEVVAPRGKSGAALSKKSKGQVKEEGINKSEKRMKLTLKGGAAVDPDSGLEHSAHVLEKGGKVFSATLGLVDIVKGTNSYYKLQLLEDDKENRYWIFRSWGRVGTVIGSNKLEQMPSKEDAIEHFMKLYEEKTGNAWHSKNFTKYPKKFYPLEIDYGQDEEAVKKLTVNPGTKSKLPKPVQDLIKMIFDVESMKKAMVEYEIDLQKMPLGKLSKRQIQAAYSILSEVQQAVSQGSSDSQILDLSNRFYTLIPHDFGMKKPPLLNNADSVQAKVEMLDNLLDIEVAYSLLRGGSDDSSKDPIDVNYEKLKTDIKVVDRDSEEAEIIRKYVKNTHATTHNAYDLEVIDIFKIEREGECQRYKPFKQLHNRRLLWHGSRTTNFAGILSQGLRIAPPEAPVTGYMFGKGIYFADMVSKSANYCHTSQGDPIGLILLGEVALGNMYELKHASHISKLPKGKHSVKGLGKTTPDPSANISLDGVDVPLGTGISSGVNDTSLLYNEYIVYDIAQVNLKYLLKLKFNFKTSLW
Procedure: Inhibition Constant (IC50) from PARP ELISA
Inhibition of PARP catalytic activity was determined by use of an ELISA-based colorimetric PARP/Apoptosis Assay kit (part number 4684-096-K HT, Trevigen). To each histone coated well in the 96-well plate supplied by the manufacturer (part number 4677-096-P) is added 39 μl of PARP buffer (part number 4671-096-02) and 1 μl of test compound dissolved in DMSO (diluted serially 3-fold 11 times). After mixing, 5 μl of 0.1 nM PARP (part number 4684-096-01) is added and the solution allowed to stand at ambient temperature for 10 minutes. PARP catalysis is initiated with the addition of 5 μl of 100 μM β-nicotinamide adenine dinucleotide (NAD+) (part number 4684-096-02) with activated DNA (part number 4671-096-06). After 10 minutes of catalysis the reaction is quenched by solvent aspiration followed by irrigation of the assay wells 4 times with phosphate buffered saline (PBS) containing 0.1% t-Octylphenoxypolyethoxyethanol (Triton® X-100). Mouse Anti-poly ADP ribose (PAR) monoclonal antibody, goat antimouse immunoglobulin G (IgG)-horse radish peroxidase (HRP) conjugate and HRP substrate are added according to the manufacture's specifications to generate a colorimetric signal proportional to PARP catalytic activity. An IC50 for the test compound is calculated from the equation Absorbance=(Amax−background)/(1+([cmpd]/IC50)^n)+background fit to the 12 point test compound concentration gradient via nonlinear least squares.

Jurkat cell line = test: PARP cellular chemopotentiation assay (MTS cell viability with and without TMZ); assay type: cell-based; conditions: ratio of EC50 for inhibition of cell viability without and with 100 μM TMZ; Jurkat cells, 96 hours of treatment
Procedure: Potentiation Factor (PF50) Determination from PARP Cellular Chemopotentiation Assay
Jurkat cell line was maintained according to the supplier (American Type Culture Collection (Rockville, Md.)). Cells were seeded in 96-well tissue culture microplates at 10,000 cells per well and cultured for 24 hours prior to addition of compounds, TMZ (Temozolomide) or DMSO (dimethylsulfoxide) vehicle. After 96 hours of treatment, the conversion of MTS ([3-(4,5-dimethylthiazol-2-yl)-5-(3-carboxymethoxyphenyl)-2-(4-sulfophenyl)-2H-tetrazolium, inner salt], Promega, Madison, Wis.) by metabolically active cells was determined through measuring the OD490 nm with a Spectramax microplate reader (Molecular Devices, San Diego, Calif.). To generate concentration-response curves, cells were treated in duplicate with a range of serial compound dilutions (final DMSO concentration was 0.5%) in the absence or presence of 100 μM TMZ chemoreagent. The percentage of viable cells per well was calculated by correction for background and normalizing against DMSO-treated cells. EC50 values for inhibition of cell viability were calculated using XLfit4 MicroSoft Excel curve-fitting software. Chemopotentiation factor PF50 was calculated as the ratio of EC50 values of cells co-treated without and with TMZ, respectively.

| Structure (SMILES) | IC50 (PARP) | PF50 (Jurkat cell line) |
| --- | --- | --- |
| CNC(=O)c1ccc(N2CCN(Cc3cnc4c(c3)NC(=O)[C@@H]3CCCN43)CC2)cc1 [Compound 11, (S)—N-methyl-4-(4-((6-oxo-5,6,6a,7,8,9-hexahydropyrido[3,2-e]pyrrolo[1,2-a]pyrazin-3-yl)methyl)piperazin-1-yl)benzamide] | 15.8 to 39.8 nM | >10 |
| Cc1cccc(N2CCN(Cc3cnc4c(c3)NC(=O)[C@@H]3CCCN43)CC2)c1 [Compound 29, (S)-3-((4-m-tolylpiperazin-1-yl)methyl)-6a,7,8,9-tetrahydropyrido[3,2-e]pyrrolo[1,2-a]pyrazin-6(5H)-one] | ≥ 50.1 nM | >500 |
| O=C1Nc2cc(CN3CCN(c4ccc(Cl)cn4)CC3)cnc2N2CCC[C@@H]12 [Compound 42, (S)-3-((4-(5-chloropyridin-2-yl)piperazin-1-yl)methyl)-6a,7,8,9-tetrahydropyrido[3,2-e]pyrrolo[1,2-a]pyrazin-6(5H)-one] | ≥ 50.1 nM | >500 |
| O=C1Nc2cc(CN3CCN(c4ccc(Cl)c(F)c4)CC3)cnc2N2CCC[C@@H]12 [Compound 47, (S)-3-((4-(4-chloro-3-fluorophenyl)piperazin-1-yl)methyl)-6a,7,8,9-tetrahydropyrido[3,2-e]pyrrolo[1,2-a]pyrazin-6(5H)-one] | ≥ 50.1 nM | >10 |
| O=C1Nc2cc(CN3CC=C(c4ccc(Cl)cc4)CC3)cnc2N2CCCC[C@@H]12 [Compound 68, (S)-3-((4-(4-chlorophenyl)-5,6-dihydropyridin-1(2H)-yl)methyl)-7,8,9,10-tetrahydro-5H-dipyrido[1,2-a:3′,2′-e]pyrazin-6(6aH)-one] | ≤ 12.6 nM | >5000 |
| O=C1Nc2cc(CN3CCN(c4ccc(Cl)cc4)CC3)cnc2N2CCCC[C@@H]12 [Compound 69, (S)-3-((4-(4-chlorophenyl)piperazin-1-yl)methyl)-7,8,9,10-tetrahydro-5H-dipyrido[1,2-a:3′,2′-e]pyrazin-6(6aH)-one] | ≤ 12.6 nM | >10 |
| O=C1Nc2cc(CN3CCC(c4ccc(Cl)cc4)CC3)cnc2N2CCCC[C@@H]12 [Compound 70, (S)-3-((4-(4-chlorophenyl)piperidin-1-yl)methyl)-7,8,9,10-tetrahydro-5H-dipyrido[1,2-a:3′,2′-e]pyrazin-6(6aH)-one] | ≥ 50.1 nM | ≧0 |
| CNC(=O)c1ccc(N2CCN(Cc3cnc4c(c3)NC(=O)[C@@H]3CCCCN43)CC2)cc1 [Compound 74, (S)—N-methyl-4-(4-((6-oxo-6,6a,7,8,9,10-hexahydro-5H-dipyrido[1,2-a:3′,2′-e]pyrazin-3-yl)methyl)piperazin-1-yl)benzamide] | ≤ 12.6 nM | >10 |
| Cc1cscc1-c1ccc(N2CCN(Cc3cnc4c(c3)NC(=O)[C@@H]3CCCCN43)CC2)cc1 [Compound 161, (S)-3-((4-(4-(4-methylthiophen-3-yl)phenyl)piperazin-1-yl)methyl)-7,8,9,10-tetrahydro-5H-dipyrido[1,2-a:3′,2′-e]pyrazin-6(6aH)-one] | ≥ 50.1 nM |  |
| Cc1ccsc1-c1ccc(N2CCN(Cc3cnc4c(c3)NC(=O)[C@@H]3CCCCN43)CC2)cc1 [Compound 162, (S)-3-((4-(4-(3-methylthiophen-2-yl)phenyl)piperazin-1-yl)methyl)-7,8,9,10-tetrahydro-5H-dipyrido[1,2-a:3′,2′-e]pyrazin-6(6aH)-one] | ≥ 50.1 nM |  |
| Cc1ccc(-c2ccc(N3CCN(Cc4cnc5c(c4)NC(=O)[C@@H]4CCCCN54)CC3)cc2)cn1 [Compound 164, (S)-3-((4-(4-(6-methylpyridin-3-yl)phenyl)piperazin-1-yl)methyl)-7,8,9,10-tetrahydro-5H-dipyrido[1,2-a:3′,2′-e]pyrazin-6(6aH)-one] | 15.8 to 39.8 nM |  |
| Cn1cc(-c2ccc(N3CCN(Cc4cnc5c(c4)NC(=O)[C@@H]4CCCCN54)CC3)cc2)cn1 [Compound 165, (S)-3-((4-(4-(1-methyl-1H-pyrazol-4-yl)phenyl)piperazin-1-yl)methyl)-7,8,9,10-tetrahydro-5H-dipyrido[1,2-a:3′,2′-e]pyrazin-6(6aH)-one] | 15.8 to 39.8 nM |  |
| Cc1ccnc(-c2ccc(N3CCN(Cc4cnc5c(c4)NC(=O)[C@@H]4CCCCN54)CC3)cc2)c1 [Compound 166, (S)-3-((4-(4-(4-methylpyridin-2-yl)phenyl)piperazin-1-yl)methyl)-7,8,9,10-tetrahydro-5H-dipyrido[1,2-a:3′,2′-e]pyrazin-6(6aH)-one] | 15.8 to 39.8 nM |  |
| Cc1cc(-c2ccc(N3CCN(Cc4cnc5c(c4)NC(=O)[C@@H]4CCCCN54)CC3)cc2)ccn1 [Compound 167, (S)-3-((4-(4-(2-methylpyridin-4-yl)phenyl)piperazin-1-yl)methyl)-7,8,9,10-tetrahydro-5H-dipyrido[1,2-a:3′,2′-e]pyrazin-6(6aH)-one] | 15.8 to 39.8 nM |  |
| O=C1Nc2cc(CN3CCN(c4ccc(-c5cnccn5)cc4)CC3)cnc2N2CCCC[C@@H]12 [Compound 168, (S)-3-((4-(4-(pyrazin-2-yl)phenyl)piperazin-1-yl)methyl)-7,8,9,10-tetrahydro-5H-dipyrido[1,2-a:3′,2′-e]pyrazin-6(6aH)-one] | 15.8 to 39.8 nM |  |
| COc1ncccc1-c1ccc(N2CCN(Cc3cnc4c(c3)NC(=O)[C@@H]3CCCCN43)CC2)cc1 [Compound 169, (S)-3-((4-(4-(2-methoxypyridin-3-yl)phenyl)piperazin-1-yl)methyl)-7,8,9,10-tetrahydro-5H-dipyrido[1,2-a:3′,2′-e]pyrazin-6(6aH)-one] | ≥ 50.1 nM |  |

More lines, main results first:

| IC50 (PARP) | Structure (SMILES) | PF50 (Jurkat cell line) |
| --- | --- | --- |
| ≤ 12.6 nM | CNC(=O)c1ccc(N2CCN(Cc3cnc4c(c3)NC(=O)[C@@H]3CCCN43)CC2)nc1 [Compound 6, (S)—N-methyl-6-(4-((6-oxo-5,6,6a,7,8,9-hexahydropyrido[3,2-e]pyrrolo[1,2-a]pyrazin-3-yl)methyl)piperazin-1-yl)nicotinamide] | >10 |
| 15.8 to 39.8 nM | CC(C)NC(=O)c1ccc(N2CCN(Cc3cnc4c(c3)NC(=O)[C@@H]3CCCN43)CC2)cc1 [Compound 12, (S)—N-isopropyl-4-(4-((6-oxo-5,6,6a,7,8,9-hexahydropyrido[3,2-e]pyrrolo[1,2-a]pyrazin-3-yl)methyl)piperazin-1-yl)benzamide] | >10 |
| 15.8 to 39.8 nM | O=C1Nc2cc(CN3CCN(c4ccc(F)cc4)CC3)cnc2N2CCC[C@@H]12 [Compound 24, (S)-3-((4-(4-fluorophenyl)piperazin-1-yl)methyl)-6a,7,8,9-tetrahydropyrido[3,2-e]pyrrolo[1,2-a]pyrazin-6(5H)-one] | >5000 |
| ≥ 50.1 nM | O=C1Nc2cc(CN3CCN(c4ccc(Br)cc4)CC3)cnc2N2CCC[C@@H]12 [Compound 37, (S)-3-((4-(4-bromophenyl)piperazin-1-yl)methyl)-6a,7,8,9-tetrahydropyrido[3,2-e]pyrrolo[1,2-a]pyrazin-6(5H)-one] | >2000 |
| 15.8 to 39.8 nM | COC(=O)c1ccc(N2CCN(Cc3cnc4c(c3)NC(=O)[C@@H]3CCCN43)CC2)cc1 [Compound 45, (S)-methyl 4-(4-((6-oxo-5,6,6a,7,8,9-hexahydropyrido[3,2-e]pyrrolo[1,2-a]pyrazin-3-yl)methyl)piperazin-1-yl)benzoate] | >10 |
| ≤ 12.6 nM | N#Cc1ccc(N2CCN(Cc3cnc4c(c3)NC(=O)[C@@H]3CCCCN43)CC2)nc1 [Compound 72, (S)-6-(4-((6-oxo-6,6a,7,8,9,10-hexahydro-5H-dipyrido[1,2-a:3′,2′-e]pyrazin-3-yl)methyl)piperazin-1-yl)nicotinonitrile] | >500 |
| 15.8 to 39.8 nM | O=C(NC1CC1)c1ccc(N2CCN(Cc3cnc4c(c3)NC(=O)[C@@H]3CCCCN43)CC2)cc1 [Compound 75, (S)—N-cyclopropyl-4-(4-((6-oxo-6,6a,7,8,9,10-hexahydro-5H-dipyrido[1,2-a:3′,2′-e]pyrazin-3-yl)methyl)piperazin-1-yl)benzamide] | >500 |
| ≥ 50.1 nM | O=C1CCC=C1c1ccc(N2CCN(Cc3cnc4c(c3)NC(=O)[C@@H]3CCCCN43)CC2)cc1 [Compound 163, (S)-3-((4-(4-(5-oxocyclopent-1-enyl)phenyl)piperazin-1-yl)methyl)-7,8,9,10-tetrahydro-5H-dipyrido[1,2-a:3′,2′-e]pyrazin-6(6aH)-one] |  |
